Reference: PubChem BioAssay (NCI)
“And” between values parts separate entries of the source, which are not always exact repeats. Identical values can stand only once.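 In this assay, cells in 96-well plates receive the compound at five concentrations for 48 hours. Endpoints are linearly interpolated between the surrounding concentrations. GI50 is the concentration that inhibits growth by half. TGI is the concentration that stops growth completely.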

How the values were obtained:
Experiment in all cases: growth of human tumour cells (NCI), 48 h
SK-MEL-2 melanoma = system: SK-MEL-2 melanoma
MCF7 breast = system: MCF7 breast
EKVX NSCLC = system: EKVX NSCLC
SK-MEL-5 melanoma = system: SK-MEL-5 melanoma
HT29 colon = system: HT29 colon
U251 CNS = system: U251 CNS
M14 melanoma = system: M14 melanoma
A549 NSCLC = system: A549 NSCLC
MDA-MB-231 breast = system: MDA-MB-231 breast
HL-60(TB) leukemia = system: HL-60(TB) leukemia

| Compound | TGI (SK-MEL-2 melanoma) | TGI (MCF7 breast) | TGI (EKVX NSCLC) | TGI (SK-MEL-5 melanoma) | TGI (HT29 colon) | TGI (U251 CNS) | TGI (M14 melanoma) | TGI (A549 NSCLC) | TGI (MDA-MB-231 breast) | TGI (HL-60(TB) leukemia) | GI50 (SK-MEL-2 melanoma) | GI50 (MCF7 breast) | GI50 (EKVX NSCLC) | GI50 (SK-MEL-5 melanoma) | GI50 (HT29 colon) | GI50 (U251 CNS) | GI50 (M14 melanoma) | GI50 (A549 NSCLC) | GI50 (MDA-MB-231 breast) | GI50 (HL-60(TB) leukemia) |
| --- | --- | --- | --- | --- | --- | --- | --- | --- | --- | --- | --- | --- | --- | --- | --- | --- | --- | --- | --- | --- |
| O=C(O)CC(Cc1ccc2c(c1)OCO2)C(=O)O (centres undefined) | > 100 µM | > 100 µM | > 100 µM | > 100 µM | > 100 µM | > 100 µM | > 100 µM | > 100 µM | > 100 µM | > 100 µM | – | – | – | – | – | – | – | – | – | – |
| c1ccc(-c2nc(Nc3ccc(-c4nc5ccccc5[nH]4)cc3)nc(N3CCOCC3)n2)cc1 | 3.59 µM | 2.85 µM | 3.42 µM | 3.15 µM | 2.19 µM | 1.76 µM | 2.9 µM | 4.01 µM | 3.48 µM | 0.601 µM | 1.97 µM | 0.877 µM | 1.59 µM | 1.69 µM | 0.646 µM | 0.535 µM | 1.34 µM | 1.95 µM | 1.29 µM | 0.031 µM |
| COc1cc(C)cc2c1OC(c1ccccc1)CC2=O (centres undefined) | > 100 µM | > 100 µM | > 100 µM | > 100 µM | > 100 µM | > 100 µM | > 100 µM | > 100 µM | > 100 µM | > 100 µM | > 100 µM | > 100 µM | > 100 µM | > 100 µM | > 100 µM | > 100 µM | > 100 µM | > 100 µM | > 100 µM | > 100 µM |
| COc1ccc(C2=NNC(c3ccc(-c4ccc(OC)cc4[N+](=O)[O-])o3)C2)cc1 (centres undefined) | > 100 µM | > 100 µM | > 100 µM | > 100 µM | > 100 µM | 50.3 µM | > 100 µM | > 100 µM | 43.6 µM | > 100 µM | > 100 µM | 20 µM | 18.4 µM | 72.7 µM | 44.9 µM | 19.4 µM | 71.3 µM | 39.5 µM | 1.89 µM | 71.7 µM |
| C=CCOc1cc2c(cc1C(C)c1ccc(OC)cc1)OCO2 (centres undefined) | > 100 µM | > 100 µM | > 100 µM | > 56.3 µM | 2.26 µM | > 100 µM | > 42.8 µM | > 100 µM | > 100 µM | 2.6 µM | – | – | – | – | – | – | – | – | – | – |
| CCOC(=O)c1sc(=S)c2c(C(=O)c3ccccc3)c(C(=O)c3ccccc3)sc2c1C(=O)OCC | 48.4 µM | 26.6 µM | 52.2 µM | 5.76 µM | > 100 µM | > 100 µM | > 100 µM | > 100 µM | 34.5 µM | 7.58 µM | 3.51 µM | 3.74 µM | 4.94 µM | 2.38 µM | 6.9 µM | 3.49 µM | 5.56 µM | 5.17 µM | 3.61 µM | 2.71 µM |
| C[C@]12CC[C@H]3[C@@H](CC=C4C[C@@H](O)CC[C@@]43C)[C@@H]1C/C(=C\c1cccc(OCCN3CCOCC3)c1)[C@@H]2O | > 100 µM | > 100 µM | > 100 µM | 23.3 µM | > 100 µM | > 100 µM | 69.2 µM | > 100 µM | > 100 µM | > 100 µM | 55.2 µM | > 100 µM | > 100 µM | 4.98 µM | 7.36 µM | > 100 µM | 24.3 µM | > 100 µM | 87.6 µM | 21.5 µM |
| CC(C)(C)Cn1c(N)nc2ccc(-c3[nH]c(C(C)(C)C)nc3-c3ccc(F)cc3)nc21 | 27.1 µM | 25.5 µM | 18.8 µM | 23 µM | 19.3 µM | 25.2 µM | 24.7 µM | 28.7 µM | 29.5 µM | 81.4 µM | 13.1 µM | 10.6 µM | 3.19 µM | 11 µM | 4.52 µM | 10.8 µM | 11.4 µM | 8.38 µM | 12.3 µM | 19.9 µM |
| C=C1C(=O)O[C@H]2[C@H]1CC/C(COC(=O)NCCc1ccc(OC)cc1)=C\CC[C@@]1(C)O[C@@H]21 | 21.9 µM | 4.79 µM | 21.5 µM | 19.1 µM | 4.71 µM | 23.5 µM | 4.78 µM | 28.4 µM | 5.17 µM | 5.72 µM | 8.97 µM | 1.89 µM | 7.45 µM | 6.23 µM | 2.15 µM | 11.1 µM | 1.98 µM | 13.2 µM | 2.02 µM | 2.34 µM |
| COc1cc(N2CCC(N(C)C)CC2)ccc1Nc1ncc(Cl)c(Nc2ccccc2P(C)(C)=O)n1 | 4.16 µM and 2.99 µM | 21.6 µM and > 10 µM | > 7.38 µM | 17 µM and > 6.71 µM | 2.99 µM and 0.785 µM | 9.94 µM and > 10 µM | 15.3 µM and > 4.88 µM | 8.54 µM and > 7.6 µM | 7.37 µM and > 5.39 µM | 11.6 µM and > 5.33 µM | 1.14 µM and 0.728 µM | 0.202 µM and 0.0522 µM | 0.344 µM | 4.34 µM and 2.72 µM | 0.261 µM and 0.0794 µM | 1.42 µM and 0.713 µM | 2.23 µM and 0.503 µM | 0.617 µM and 0.218 µM | 1.22 µM and 0.333 µM | 1.25 µM and 0.168 µM |
| O=C(Oc1ccccc1)c1cc(O)c(O)c(O)c1 | > 100 µM | > 100 µM | > 100 µM | 38.8 µM | > 100 µM | > 100 µM | 34 µM | > 100 µM | > 100 µM | 7.12 µM | 35.9 µM | 24.7 µM | 8.95 µM | 11.4 µM | 30 µM | 10.7 µM | 11.9 µM | 9.64 µM | 26.2 µM | 1.43 µM |
| N#Cc1nc(-c2cccc(Br)c2)cc(-c2ccc(Nc3nc(N4CCCCC4)nc(N4CCCCC4)n3)cc2)c1N | 4.61 µM | 54.4 µM | 5.02 µM | 3.18 µM | 4.09 µM | 3.38 µM | 7.5 µM | > 100 µM | 3.21 µM | 6.47 µM | 2.09 µM | 1.03 µM | 2.12 µM | 1.76 µM | 1.22 µM | 1.72 µM | 2.84 µM | 3.68 µM | 1.56 µM | 2.27 µM |
| COC(=O)C1=CN(CC2=CC(=O)C(C)=CC2=O)C=C(C(=O)OC)C1c1cccc(OC)c1OC | 52.1 µM | 55.2 µM | > 100 µM | 32.6 µM | > 100 µM | 50.2 µM | 29.4 µM | > 51.5 µM | 28.9 µM | 14.1 µM | 19.8 µM | 18.6 µM | 35.6 µM | 15.2 µM | 41.1 µM | 18.6 µM | 15.3 µM | 13 µM | 11.8 µM | 5.07 µM |
| CCCCCCN1C(=O)/C(=c2\sc3n(c2=O)C2C(NN=3)N(CC)C(=O)N2CC)c2ccccc21 (centres undefined) | > 50 µM | > 50 µM | > 50 µM | > 50 µM | > 50 µM | – | > 50 µM | > 50 µM | 10.4 µM | 43.9 µM | 3.06 µM | 1.73 µM | 2.84 µM | 3.48 µM | 1.5 µM | – | 3.24 µM | 1.47 µM | 1.77 µM | 1.96 µM |
| CC1(C)CCSC(/C=C/c2ccccc2)=N1 | 28.8 µM | 27.6 µM | 63.7 µM | 28.8 µM | 33.1 µM | 34.3 µM | 27 µM | > 100 µM | 30.6 µM | > 100 µM | – | – | – | – | – | – | – | – | – | – |
| Nc1nc(-n2cccn2)nc(-n2cccn2)c1Br | > 100 µM | > 100 µM | > 100 µM | > 100 µM | > 100 µM | > 100 µM | > 100 µM | > 100 µM | > 100 µM | > 100 µM | > 100 µM | > 100 µM | > 100 µM | > 100 µM | > 100 µM | > 100 µM | > 100 µM | > 100 µM | > 100 µM | > 100 µM |
| COc1ccc(NC2=C(Sc3nc(C)cc(C)n3)C(=O)N(Cc3ccccc3)C2=O)cc1Cl | > 160 µM | > 160 µM | > 160 µM | > 160 µM | > 160 µM | > 160 µM | > 160 µM | > 160 µM | > 160 µM | > 160 µM | 138 µM | 56.8 µM | 157 µM | 33.9 µM | 54.5 µM | 55 µM | > 160 µM | > 160 µM | 127 µM | 140 µM |
| COc1ncnc2c(NC3OC(CO)C(O)C3O)ncnc12 (centres undefined) | > 100 µM | 0.443 µM | > 49 µM | > 39.8 µM | > 32 µM | > 100 µM | 21.9 µM | – | 1.54 µM | 0.418 µM | – | – | – | – | – | – | – | – | – | – |
| CC1(C)OC2C(CO)OC(n3ccc(=O)[nH]c3=O)C2O1 (centres undefined) | > 100 µM | > 100 µM | > 100 µM | > 100 µM | – | > 100 µM | > 100 µM | > 100 µM | > 100 µM | > 100 µM | – | – | – | – | – | – | – | – | – | – |
| C#Cc1cccc(NC(=O)Nc2ccc(NC(=O)CCl)cc2)c1 | > 82.5 µM | > 82.5 µM | > 82.5 µM | 28.7 µM | 36.3 µM | 35.2 µM | – | > 82.5 µM | 34 µM | 33.4 µM | > 82.5 µM | 27.8 µM | > 82.5 µM | 15.1 µM | 14.8 µM | 15.1 µM | – | > 82.5 µM | 14.8 µM | 14.9 µM |
